Columns and labels:
EGFR = EGFR tyrosine phosphorylation (EGFR activation) in primary human keratinocytes; type: cell-based; conditions: human primary keratinocytes treated before UV irradiation (extracts: 16 hours, 50 mJ/cm2, 30 minutes post irradiation)
Description: With reference to FIG. 3, UV-induced EGFR tyrosine phosphorylation is shown to be ligand-independent and mediated by oxidative inhibition of RPTP-κ in primary human keratinocytes. Shown in panel A, primary human keratinocytes were treated with control IgG1 or EGFR antibody LA1 (1 μg/mL), which blocks ligand binding, as indicated. Cells were then treated with vehicle (CTRL), or EGF (10 ng/mL) for 10 min, or UV irradiated (50 mJ/cm^2) and harvested 15 min post irradiation. Whole cell lysates were subjected to Western analysis for total EGFR and tyrosine-phosphorylated EGFR. Levels of immunoreactive EGFR were quantified by chemifluorescent detection. Results are mean±S.E. of three independent experiments; *, p<0.05. […] Shown in panel B, human keratinocytes were UV-irradiated (50 mJ/cm^2), and whole cell lysates were prepared at the indicated times. RPTP-κ and β-actin (internal control) were detected by Western blot, and quantified by chemifluorescent detection. Results are mean±S.E. of three independent experiments; *, p<0.05. […] Shown in panel C, primary human keratinocytes were mock (No UV) or UV irradiated (50 mJ/cm^2), and whole cell lysates were prepared 5 min post-UV irradiation. RPTP-κ was immunoprecipitated, and phosphatase activity was determined using a tyrosine-phosphorylated EGFR peptide as substrate. Phosphatase activity was normalized to RPTP-κ protein content in the immunoprecipitates, which was quantified by Western analysis using chemifluorescent detection. Results are mean±S.E. of three independent experiments; *, p<0.05. […] Endogenous RPTP-κ was immunoprecipitated, and assayed for activity in buffer containing dithiothreitol to reduce oxidized RPTP-κ to restore enzymatic activity, using a tyrosine-phosphorylated EGFR peptide as substrate. Results are mean±S.E. of three independent experiments; *, p<0.05. Shown in panel E, RPTP-κ was immunoprecipitated from mock or UV-irradiated human keratinocytes, and the immunoprecipitates were treated with DTT to reduce oxidized RPTP-κ, as described above for panel C. Reduced RPTP-κ was irreversibly oxidized by pervanadate, and oxidized (OX-PTP) and total RPTP-κ were detected by Western blot, using specific antibodies. Results are mean±S.E. of three independent experiments; *, p<0.05.
With reference to FIG. 4, knockdown of RPTP-κ is shown to increase EGFR tyrosine phosphorylation in primary human keratinocytes. Shown in panel A, human keratinocytes were transfected with scrambled control (CTRL) or RPTP-κ siRNA. Two days post-transfection, whole cell lysates were prepared and analyzed for RPTP-κ and β-actin (internal control) proteins by Western blot. Results are mean±S.E. of three independent experiments; *, p<0.05. […] Shown in panel B, two days after transfection with control (CTRL) or RPTP-κ siRNA, keratinocytes were UV irradiated (50 mJ/cm2). Whole cell lysates were prepared 15 min post-UV irradiation and analyzed for total EGFR and tyrosine-phosphorylated EGFR Western blot. Results are mean±S.E. of three independent experiments; *, p<0.05. […] Shown in panel C, keratinocytes were transfected with control (CTRL) or RPTP-κ siRNA and treated with control IgG or neutralizing anti-EGFR antibody. Two days post-transfection, whole cell lysates were prepared and total and tyrosine-phosphorylated EGFR were quantified by ELISA. Results are mean±S.E. of three independent experiments; *, p<0.05.
With reference to FIG. 7, primary adult human keratinocytes were treated with Laminaria japonica extract (LJE) or Porphyra haitanensis extract (PHE) for 16 hours prior to exposure to ultraviolet (UV) irradiation (50 mJ/cm2). Cells were analyzed for phosphorylated epidermal growth factor receptor (EGFR) and total EGFR by Western analyses 30 minutes post irradiation. […]

purified EGFR = purified EGFR (Homo sapiens, UniProt P00533); conditions: EGFR with EGF and ATP/Mg2+, H2O2 at room temperature 30 min; FIG. 1B
purified EGFR, sequence (P00533 25-1210): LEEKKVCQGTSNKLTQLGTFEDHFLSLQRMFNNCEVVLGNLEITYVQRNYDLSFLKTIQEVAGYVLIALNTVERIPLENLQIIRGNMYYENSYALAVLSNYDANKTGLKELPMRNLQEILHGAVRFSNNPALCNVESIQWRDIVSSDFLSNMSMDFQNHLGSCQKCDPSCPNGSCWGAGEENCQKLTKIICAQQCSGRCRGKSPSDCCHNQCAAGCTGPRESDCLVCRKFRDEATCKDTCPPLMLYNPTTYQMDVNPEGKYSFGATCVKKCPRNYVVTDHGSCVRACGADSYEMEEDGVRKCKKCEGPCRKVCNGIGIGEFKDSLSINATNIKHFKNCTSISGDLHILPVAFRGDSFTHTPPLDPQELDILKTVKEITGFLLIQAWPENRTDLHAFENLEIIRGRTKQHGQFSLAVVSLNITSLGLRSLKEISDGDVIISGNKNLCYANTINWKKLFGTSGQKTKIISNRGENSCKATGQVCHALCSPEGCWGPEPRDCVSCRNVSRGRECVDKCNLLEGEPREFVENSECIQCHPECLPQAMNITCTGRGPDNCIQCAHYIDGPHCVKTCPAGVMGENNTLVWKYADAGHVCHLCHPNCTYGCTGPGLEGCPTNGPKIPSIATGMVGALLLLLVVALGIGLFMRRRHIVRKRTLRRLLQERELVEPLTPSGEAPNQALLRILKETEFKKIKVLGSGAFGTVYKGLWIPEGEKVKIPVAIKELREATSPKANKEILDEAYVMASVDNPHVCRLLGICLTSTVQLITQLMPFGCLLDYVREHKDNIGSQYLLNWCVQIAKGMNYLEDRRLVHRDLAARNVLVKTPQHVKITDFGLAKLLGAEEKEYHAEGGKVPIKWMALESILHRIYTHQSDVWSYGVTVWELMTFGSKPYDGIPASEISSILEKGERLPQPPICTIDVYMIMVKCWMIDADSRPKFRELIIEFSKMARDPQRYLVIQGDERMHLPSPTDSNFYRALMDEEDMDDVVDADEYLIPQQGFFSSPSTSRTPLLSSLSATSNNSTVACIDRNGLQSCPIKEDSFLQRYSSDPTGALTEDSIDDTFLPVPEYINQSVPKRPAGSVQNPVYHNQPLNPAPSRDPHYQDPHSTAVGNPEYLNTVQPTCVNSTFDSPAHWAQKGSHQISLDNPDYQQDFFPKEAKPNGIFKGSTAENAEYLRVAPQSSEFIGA

[1] = target: RPTP-κ glutathione S-transferase fusion protein (Homo sapiens, UniProt Q15262); conditions: 100 μM H2O2, room temperature 30 min; FIG. 1A
RPTP-κ glutathione S-transferase fusion protein, sequence (Q15262 775-1439 limits assumed): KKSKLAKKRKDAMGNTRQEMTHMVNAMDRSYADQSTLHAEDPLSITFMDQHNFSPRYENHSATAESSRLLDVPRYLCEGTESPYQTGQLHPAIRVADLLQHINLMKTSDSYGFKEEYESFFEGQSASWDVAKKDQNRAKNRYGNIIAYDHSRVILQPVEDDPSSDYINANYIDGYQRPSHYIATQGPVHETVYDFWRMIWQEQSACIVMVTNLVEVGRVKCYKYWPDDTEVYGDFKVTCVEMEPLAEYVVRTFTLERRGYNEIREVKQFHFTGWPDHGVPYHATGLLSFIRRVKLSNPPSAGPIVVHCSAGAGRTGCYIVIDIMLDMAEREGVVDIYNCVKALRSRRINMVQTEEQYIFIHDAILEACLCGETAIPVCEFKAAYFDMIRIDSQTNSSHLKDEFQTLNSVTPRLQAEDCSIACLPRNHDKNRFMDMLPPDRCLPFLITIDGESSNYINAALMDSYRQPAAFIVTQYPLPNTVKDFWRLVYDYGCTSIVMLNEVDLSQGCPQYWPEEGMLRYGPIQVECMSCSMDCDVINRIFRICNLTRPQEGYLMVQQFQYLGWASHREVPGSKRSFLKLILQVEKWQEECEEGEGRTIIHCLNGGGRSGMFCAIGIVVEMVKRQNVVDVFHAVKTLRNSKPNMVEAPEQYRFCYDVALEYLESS

RPTP-κ and EGFR = RPTP-κ and EGFR (Homo sapiens, UniProt Q15262); conditions: purified RPTP-κ and EGFR together, H2O2 100 μM, room temperature 30 min; FIG. 1C
RPTP-κ and EGFR, sequence (Q15262 775-1439 limits assumed): as above

Row | SMILES | UV irradiation-induced EGFR activation (EGFR) | other results
1 | CC(=O)N[C@@H](CS)C(=O)O [N-Acetyl cysteine] | no effect | 
2 | CC1=NN(c2ccccc2)C(=O)C1 [MCI-186, 3-Methyl-1-phenyl-2-pyrazolin-5-one] | no effect | 
3 | OO [H2O2, hydrogen peroxide] |  | effect on tyrosine phosphorylation of purified EGFR (purified EGFR): no direct effect; loss of RPTP-κ activity [1]: 80%; EGFR tyrosine phosphorylation (RPTP-κ and EGFR): increased to the level observed in the absence of RPTP-κ
4 | COC1=C(OC)C(=O)C(CCCCCCCCCC[P+](c2ccccc2)(c2ccccc2)c2ccccc2)=C(C)C1=O [Mito Q10] | no effect | 
5 | O=C(/C=C/c1ccc(O)c(O)c1)OCCc1ccccc1 [CAPE, Caffeic acid phenethyl ester] | no effect | 
6 | CC1=C(C)C(=O)C(CC[C@](C)(O)CCC[C@H](C)CCC[C@H](C)CCCC(C)C)=C(C)C1=O [Tocopherylquinone, d-alpha] | no effect | 
7 | Oc1ccc(C=Cc2cc(O)cc(O)c2)cc1 [Resveratrol] | no effect | UV irradiation-induced EGFR activation (EGFR; listed as resveratrol): did not exhibit activity
